From patent US20200270309A1, “MALEIMIDE GROUP-MODIFIED ANGIOGENESIS INHIBITOR HM-1 AND USE THEREOF” (NANJING ANJI BIOLOGICAL TECHNOLOGY CO., LTD, priority 2017, published 2020)
Peptide text beside a SMILES is read from it. * marks the point of attachment. X64 = O=C1C=CC(=O)N1c1cccc(CCCCCCCCCC(=O)*)c1; X52 = O=C1C=CC(=O)N1c1ccccc1CCCCCCCC(=O)*

How the values were obtained:
HUVECs = test: Transwell migration inhibition on HUVECs; assay type: cell-based, human; details: HUVEC migration vs blank control
splenic lymphocytes = test: Proliferation of splenic lymphocytes in mice (ConA, MTT); assay type: cell-based; details: ConA-stimulated mouse splenic lymphocytes, 48 h
Procedure: Spleens of mice were taken out under aseptic conditions, washed with blank 1640 culture medium 3 times, ground with a 5 mL syringe core, filtered with a 200-mesh sieve, made into a single cell suspension. The suspension was centrifuged (1000 rpm×5 min), and supernatant was removed. Red blood cells were lysed by Tris-NH4Cl, and placed in ice water bath for 4 min and centrifuged (1000 rpm×5 min). The supernatant was removed, and the cells were washed twice with sterile PBS. Finally, RPMI 1640 culture solution (5 mL) containing 10% calf serum was added to suspend the cells. The cells were counted and the cell concentration was adjusted to 5×10^6 cells/mL, and the cells were cultured in a 96-well culture plate.
Blank control group, concanavalin A (ConA) group and dexamethasone (Dex) group were set in the experiment, and polypeptide X1-X90 groups were set as test groups. After 100 μL of splenic lymphocytes suspension per well was added into each group, 100 μL of blank 1640 culture solution was added into the blank control group, ConA was added into the ConA group, Dex was added into the Dex group, and ConA was added into the test groups on the basis of adding different concentrations of polypeptides X1-X90. The cells were static cultured at 37° C. in a cell incubator for 48 h. After the cultivation was completed, 20 μL of MTT was added to each well, and the cultivation was continued for 4 h. Finally, all the solutions in each well were discarded. 100 μL DMSO was added to each well and shaken, and the OD value at 570 nm was detected with a microplate reader. Five parallel experiments were set in each well.

[1] = test system: IL-1β production by mouse peritoneal macrophages; test: IL-1β production by mouse peritoneal macrophages (ELISA); assay type: cell-based; details: for Inhibition rate: IL-1β production, vs model group; for IL-1β: mouse peritoneal macrophages, 48 h, ELISA
Procedure: Mice were injected intraperitoneally with 1 mL of broth culture medium (containing 6% of starch). Three days later, mice peritoneal macrophages were taken aseptically and washed twice with 1640 culture medium, and the cell concentration was adjusted to 2×10^6 cells/mL. The solutions were injected into 24-well culture plates at 1 mL per well. The cells were incubated in a cell incubator for 3 h and vibrated once every 30 min to make the cells fully adhere to the wall. Then, the cells were washed twice with a culture solution to remove non-adhered cells. PBS was added to the blank group, positive drug Dex was added to the positive group, no drug was added to the model group, and polypeptides X1-X90 with low, medium and high concentrations were added to the test groups; and the cells were continuously cultured for 48 h after administration, and then centrifuged at 1000 r/min for 15 min. The supernatant was collected as a sample to be tested for IL-1β activity.

[2] = test system: collagen-induced arthritis; test: Mouse collagen-induced arthritis (CIA) animal model; assay type: in vivo; details: DBA/1 mice CIA model, dose 4.0 mg/kg, subcutaneous from day 30, n=10; for Clinical score: highest score 16
[3] = test system: corneal neovascularization; test: Corneal neovascularization induced by alkali burn in BALB/c mice; assay type: in vivo; parameters: Inhibition rate (corneal neovascularization): concentration or dose not given beside the values; details: day 14 after alkali burn, vitreous injection once a day for 1 week
[4] = test system: retinal vascular endothelial nuclei; test: Neovascularization in a rat model of premature retinopathy; assay type: in vivo, rats; details: dose 0.05 μM in the vitreous chamber from day 7 of modeling for one week; counted on day 14; oxygen-induced neonatal rats
Procedure: Using a fluctuating oxygen-induced animal model, newborn rats born naturally on the same day (within 12 h) were randomly divide into three groups: an oxygen model group, an oxygen treatment group and a normal control group. The oxygen model was further divided into three sub-group model groups, and the sub-group model groups and the treatment group were all placed in a semi-closed oxygen chamber made of organic glass; medical oxygen was introduced into the chamber, and the concentration was adjusted to 80%±2% by an oxygen meter; nitrogen was introduced into the oxygen chamber after 24 h, and the oxygen concentration was adjusted to 10%±2% rapidly and maintained for 24 h. This was repeated to keep the oxygen concentration in the oxygen chamber alternating between 80% and 10% every 24 h, the oxygen concentration was maintained for 7 d, and then the rats were fed in the air. The oxygen concentration was monitored 8 times a day, and the ambient temperature in the chamber was controlled at 23° C.±2° C. Bedding was replaced, feed was added, and water and mother rats were replaced once. The normal control group was placed in the animal room feeding environment. […] The oxygen treatment group was divided into three subgroups. On day 7 of modeling, X1-[…], […]-[…] and […]-X90 were injected in the vitreous chamber respectively, and the oxygen model group and the control group were only given normal saline for one week. On day 14, after the rats were anesthetized by diethyl ether and killed, eyeballs were extracted and fixed in 40 g/L paraformaldehyde solution for 24 h. Gradient dehydration by alcohol was performed, and the eyeballs were processed by xylene to be transparent. After waxing, the eyeballs were sectioned continuously to a thickness of 4μm, and the periphery of the optic disc should be avoided as much as possible. The sections were parallel to the sagittal plane from cornea to the optic disc. Ten sections of each eyeball were randomly taken and stained with hematoxylin eosin, the number of vascular endothelial nuclei that broke through the inner limiting membrane of the retina (only the number of vascular endothelial nuclei closely related to the inner limiting membrane were counted) was counted, and statistics of the average number of cells per section per eyeball was performed. Results: In the control group, there were no vascular endothelial nuclei that broke through the inner limiting membrane of the retina and grew into vitreous body, or the vascular endothelial nuclei were occasionally found in only a few sections. In the model group, there were many vascular endothelial nuclei that broke through the inner limiting membrane of the retina, some appeared alone, and some appeared in clusters. At the same time, on some sections, these vascular endothelial nuclei were also found adjacent to deep retinal vessels, confirming that they originated from the retina rather than the vitreous body or other ocular tissues. In the treatment group, only a few vascular endothelial nuclei that broke through the inner limiting membrane of retina could be seen in the sections.

C[C@H](NC(=O)CNC(=O)[C@H](CCCNC(=N)N)NC(=O)CCCCCCCCCc1cccc(N2C(=O)C=CC2=O)c1)C(=O)N[C@@H](CC(=O)O)C(=O)N[C@@H](CCCNC(=N)N)C(=O)N[C@@H](C)C(=O)NCC(=O)NCC(=O)NCC(=O)NCC(=O)N[C@@H](CCCNC(=N)N)C(=O)NCC(=O)N[C@@H](CC(=O)O)C(=O)O [X33] (X64-RGADRAGGGGRGD-OH)
Inhibition rate (%) (HUVECs; dose 0.05 μM): 42.63% | Inhibition rate (%) (HUVECs; dose 0.1 μM): 47.45% | Inhibition rate (%) (HUVECs; dose 0.2 μM): 54.20% | A570 nm/A630 nm (splenic lymphocytes; polypeptide dose 0.05 μM): 0.5669 ± 0.1137 | Inhibition rate (%) (splenic lymphocytes; polypeptide dose 0.05 μM): 16.06% | A570 nm/A630 nm (splenic lymphocytes; polypeptide dose 0.1 μM): 0.5297 ± 0.0479 | Inhibition rate (%) (splenic lymphocytes; polypeptide dose 0.1 μM): 21.57% | A570 nm/A630 nm (splenic lymphocytes; polypeptide dose 0.2 μM): 0.4492 ± 0.1069 | Inhibition rate (%) (splenic lymphocytes; polypeptide dose 0.2 μM): 33.49% | Inhibition rate ([1]; dose 0.05 μM): 25.68% | IL-1β ([1]; dose 0.05 μM): 699.41 ± 11.17 pg/mL | Inhibition rate ([1]; dose 0.1 μM): 34.80% | IL-1β ([1]; dose 0.1 μM): 613.62 ± 19.23 pg/mL | Inhibition rate ([1]; dose 0.2 μM): 36.96% | IL-1β ([1]; dose 0.2 μM): 593.32 ± 11.64 pg/mL | Joint swelling degree (mm) [2]: 0.82 ± 0.11 mm | Left and right paw swelling degree (mm) [2]: 0.74 ± 0.17 mm | Clinical score [2]: 9.08 ± 1.25 | Inhibition rate (corneal neovascularization) [3]: 47.20% | MVD (corneal microvessel density) [3]: 35.50 ± 3.223 | Nuclei count (retinal vascular endothelial nuclei, average per section per eyeball) [4]: 7.654 ± 1.142

C[C@H](NC(=O)CNC(=O)[C@H](CCCNC(=N)N)NC(=O)CCCCCCCc1ccccc1N1C(=O)C=CC1=O)C(=O)N[C@@H](CC(=O)O)C(=O)N[C@@H](CCCNC(=N)N)C(=O)N[C@@H](C)C(=O)NCC(=O)NCC(=O)NCC(=O)NCC(=O)N[C@@H](CCCNC(=N)N)C(=O)NCC(=O)N[C@@H](CC(=O)O)C(=O)O [X19] (X52-RGADRAGGGGRGD-OH)
Inhibition rate (%) (HUVECs; dose 0.05 μM): 40.99% | Inhibition rate (%) (HUVECs; dose 0.1 μM): 46.77% | Inhibition rate (%) (HUVECs; dose 0.2 μM): 54.44% | A570 nm/A630 nm (splenic lymphocytes; polypeptide dose 0.05 μM): 0.5093 ± 0.0372 | Inhibition rate (%) (splenic lymphocytes; polypeptide dose 0.05 μM): 24.59% | A570 nm/A630 nm (splenic lymphocytes; polypeptide dose 0.1 μM): 0.5027 ± 0.0814 | Inhibition rate (%) (splenic lymphocytes; polypeptide dose 0.1 μM): 25.57% | A570 nm/A630 nm (splenic lymphocytes; polypeptide dose 0.2 μM): 0.4978 ± 0.0481 | Inhibition rate (%) (splenic lymphocytes; polypeptide dose 0.2 μM): 26.30% | Inhibition rate ([1]; dose 0.05 μM): 37.19% | IL-1β ([1]; dose 0.05 μM): 591.13 ± 10.54 pg/mL | Inhibition rate ([1]; dose 0.1 μM): 37.27% | IL-1β ([1]; dose 0.1 μM): 590.42 ± 10.34 pg/mL | Inhibition rate ([1]; dose 0.2 μM): 37.39% | IL-1β ([1]; dose 0.2 μM): 589.21 ± 12.08 pg/mL | Joint swelling degree (mm) [2]: 0.84 ± 0.18 mm | Left and right paw swelling degree (mm) [2]: 0.82 ± 0.14 mm | Clinical score [2]: 8.72 ± 1.41 | Inhibition rate (corneal neovascularization) [3]: 41.43% | MVD (corneal microvessel density) [3]: 39.38 ± 4.833 | Nuclei count (retinal vascular endothelial nuclei, average per section per eyeball) [4]: 7.236 ± 1.218
